Data on 47 compounds can be found in US9637472B2, “Substituted 6,5-fused bicyclic heteroaryl compounds” (Epizyme, Inc., priority 2011, dated 2017).

Broadly, the IC50 is the concentration at which inhibition is half-maximal.

A value given as a limit tells only on which side of the number the result lay.

Sequence of EZH2 (Q15910 other isoform, or with tags, fused parts or gaps): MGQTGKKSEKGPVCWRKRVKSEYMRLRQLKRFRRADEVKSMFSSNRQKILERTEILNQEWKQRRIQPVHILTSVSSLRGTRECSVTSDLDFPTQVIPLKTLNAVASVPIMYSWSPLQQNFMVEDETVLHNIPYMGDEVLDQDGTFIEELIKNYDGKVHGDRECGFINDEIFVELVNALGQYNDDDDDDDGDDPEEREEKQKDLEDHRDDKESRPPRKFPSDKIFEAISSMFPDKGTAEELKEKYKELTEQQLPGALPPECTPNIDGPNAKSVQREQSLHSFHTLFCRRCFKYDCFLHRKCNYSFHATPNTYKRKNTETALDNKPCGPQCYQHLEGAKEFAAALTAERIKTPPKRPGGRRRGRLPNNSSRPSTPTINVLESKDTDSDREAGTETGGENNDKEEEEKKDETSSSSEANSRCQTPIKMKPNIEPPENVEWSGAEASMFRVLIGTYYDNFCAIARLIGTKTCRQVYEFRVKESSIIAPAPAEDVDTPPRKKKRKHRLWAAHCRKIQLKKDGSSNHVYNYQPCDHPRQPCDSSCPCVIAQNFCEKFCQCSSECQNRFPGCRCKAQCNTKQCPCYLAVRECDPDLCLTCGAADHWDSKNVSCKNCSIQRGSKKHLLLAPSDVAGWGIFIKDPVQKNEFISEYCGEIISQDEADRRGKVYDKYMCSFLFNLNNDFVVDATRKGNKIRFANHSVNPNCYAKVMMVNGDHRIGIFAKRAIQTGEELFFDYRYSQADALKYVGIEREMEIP
Sequence of EZH2 (O75530 whole entry partner): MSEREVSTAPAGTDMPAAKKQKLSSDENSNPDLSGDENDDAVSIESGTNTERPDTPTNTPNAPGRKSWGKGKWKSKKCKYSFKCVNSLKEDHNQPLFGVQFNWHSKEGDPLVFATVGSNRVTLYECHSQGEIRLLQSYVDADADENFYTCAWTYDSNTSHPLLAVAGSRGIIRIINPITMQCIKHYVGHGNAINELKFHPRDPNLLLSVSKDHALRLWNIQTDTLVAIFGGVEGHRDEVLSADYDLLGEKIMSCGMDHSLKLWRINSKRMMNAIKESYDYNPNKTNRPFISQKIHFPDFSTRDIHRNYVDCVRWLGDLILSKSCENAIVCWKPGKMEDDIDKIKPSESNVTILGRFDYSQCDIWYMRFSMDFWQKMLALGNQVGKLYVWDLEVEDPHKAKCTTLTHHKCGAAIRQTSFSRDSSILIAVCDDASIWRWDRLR
Sequence of EZH2 (Q15022 whole entry partner): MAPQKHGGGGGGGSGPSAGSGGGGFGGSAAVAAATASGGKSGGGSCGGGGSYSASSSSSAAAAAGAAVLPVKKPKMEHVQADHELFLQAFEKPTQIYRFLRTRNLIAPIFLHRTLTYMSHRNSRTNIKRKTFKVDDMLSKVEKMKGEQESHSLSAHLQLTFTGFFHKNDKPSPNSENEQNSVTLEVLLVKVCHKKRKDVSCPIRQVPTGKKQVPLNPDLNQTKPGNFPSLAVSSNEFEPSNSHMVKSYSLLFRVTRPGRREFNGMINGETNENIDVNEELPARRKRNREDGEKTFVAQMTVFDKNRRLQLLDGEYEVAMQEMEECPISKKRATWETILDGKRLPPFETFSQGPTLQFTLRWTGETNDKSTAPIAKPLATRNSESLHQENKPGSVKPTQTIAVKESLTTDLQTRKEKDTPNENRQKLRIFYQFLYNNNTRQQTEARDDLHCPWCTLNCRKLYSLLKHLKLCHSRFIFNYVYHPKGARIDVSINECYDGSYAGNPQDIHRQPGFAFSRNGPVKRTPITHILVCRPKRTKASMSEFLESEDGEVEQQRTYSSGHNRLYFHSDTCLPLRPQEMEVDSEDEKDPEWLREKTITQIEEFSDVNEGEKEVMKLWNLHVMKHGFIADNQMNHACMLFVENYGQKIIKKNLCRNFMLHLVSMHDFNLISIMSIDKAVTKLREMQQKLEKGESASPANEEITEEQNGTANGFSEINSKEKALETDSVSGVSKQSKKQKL
Sequence of EZH2 (Q09028 whole entry partner): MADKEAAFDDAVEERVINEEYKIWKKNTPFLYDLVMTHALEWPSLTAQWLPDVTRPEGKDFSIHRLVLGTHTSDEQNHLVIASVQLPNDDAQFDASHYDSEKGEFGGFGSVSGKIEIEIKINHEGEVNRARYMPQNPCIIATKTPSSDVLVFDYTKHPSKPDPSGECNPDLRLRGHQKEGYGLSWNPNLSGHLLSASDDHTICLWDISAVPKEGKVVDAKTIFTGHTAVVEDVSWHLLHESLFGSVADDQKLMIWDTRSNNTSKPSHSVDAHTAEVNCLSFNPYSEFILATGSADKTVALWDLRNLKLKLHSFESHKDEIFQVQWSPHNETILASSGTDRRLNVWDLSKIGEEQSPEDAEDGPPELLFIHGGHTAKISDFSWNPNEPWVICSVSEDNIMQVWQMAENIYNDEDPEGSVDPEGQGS

The assay has as its target EZH2 (Homo sapiens (Human), UniProt Q15910). Put plainly: PRC2 enzyme assay on peptide substrates. The following applies: PRC2 enzyme assays on peptide substrates; 4 nM enzyme, 30 min preincubation at 25° C.; read-out: EZH2 IC50. It counts as biochemical.
Regarding `COC(=O)/C=C/Cn1ncc2c(C(=O)NCc3c(C)cc(C)[nH]c3=O)cc(C3=CC(C)(C)NC(C)(C)C3)nc21` [Compound B-124], the IC50 was 3 to 10 µM.
Consider `Cc1cc(C)c(CNC(=O)c2cc(N)nc3c2cnn3C(C)C)c(=O)[nH]1` [Compound B-125], for which the half-inhibitory concentration (IC50) lay within 3 to 10 µM.
Next, `Cc1cc(C)c(CNC(=O)c2cc(C(O)CO)nc3c2cnn3C(C)C)c(=O)[nH]1` (centres unmarked) [Compound B-126]: 3 to 10 µM; `Cc1cc(C)c(CNC(=O)c2ccnc3c2cnn3C(C)C)c(=O)[nH]1` [Compound B-127]: 3 to 10 µM; `Cc1cc(C)c(CNC(=O)c2cc(C(=O)N3CCC(N4CCN(C)CC4)CC3)nc3c2cnn3C(C)C)c(=O)[nH]1` [Compound B-128]: 3 to 10 µM.
As for `Cc1cc(C)c(CNC(=O)c2cc(C3CCOCC3)nc3c2cnn3C(C)C)c(=O)[nH]1` [Compound B-129], the IC50 was 3 to 10 µM.
On to `Cc1cc(C)c(CNC(=O)c2cc(C3=CC(C)(C)NC(C)(C)C3)nc3c2cnn3CC2CC2)c(=O)[nH]1` [Compound B-130], for which the IC50 was in the range of 3 to 10 µM.
Consider `CCn1ncc2c(C(=O)NCc3c(C)cc(C)[nH]c3=O)cc(C3=CC(C)(C)NC(C)(C)C3)nc21` [Compound B-131], for which the IC50 fell in the range of 3 to 10 µM.
For the compound `Cc1cc(C)c(CNC(=O)c2cc(C(=O)N(C)CCN(C)C)nc3c2cnn3C(C)C)c(=O)[nH]1` [Compound B-133], the IC50 lay in the range of 3 to 10 µM.
Turning to `Cc1cc(C)c(CNC(=O)c2cc(N(C)CC(O)CO)nc3c2cnn3C(C)C)c(=O)[nH]1` (centres unmarked) [Compound B-134], the half-inhibitory concentration (IC50) was in the range of 3 to 10 µM.
Consider `Cc1cc(C)c(CNC(=O)c2cc(N(C)CCN(C)C)nc3c2cnn3C(C)C)c(=O)[nH]1` [Compound B-135], for which the 50% inhibitory concentration (IC50) lay in the range of 3 to 10 µM.
With `Cc1cc(C)c(CNC(=O)c2cc(N(C)C)nc3c2cnn3C(C)C)c(=O)[nH]1` [Compound B-136] the figure was 3 to 10 µM; with `CCc1c(C)[nH]c(=O)c(CNC(=O)c2cc(C3CC(C)(C)NC(C)(C)C3)nc3c2cnn3C(C)C)c1C` [Compound B-137], 3 to 10 µM.
Consider `Cc1cc(C)c(CNC(=O)c2cc(C(=O)N3CCN(C)CC3)nc3c2cnn3C(C)C)c(=O)[nH]1` [Compound B-138], for which the half-inhibitory concentration (IC50) was 3 to 10 µM.
For `Cc1[nH]c(=O)c(CNC(=O)c2cc(C3=CC(C)(C)NC(C)(C)C3)nc3c2cnn3C(C)C)c(C)c1C` [Compound B-139], the IC50 is 3 to 10 µM.
For `Cc1cc(C)c(CNC(=O)c2cc(C(=O)NCCN(C)C)nc3c2cnn3C(C)C)c(=O)[nH]1` [Compound B-140], the half-maximal inhibitory concentration (IC50) is 3 to 10 µM.
Regarding `Cc1cc(C)c(CNC(=O)c2cc(C(=O)N(C)C)nc3c2cnn3C(C)C)c(=O)[nH]1` [Compound B-141], the half-inhibitory concentration (IC50) lay in the range of 3 to 10 µM.
As for `Cc1cc(C)c(CNC(=O)c2cc(C3CCCCC3)nc3c2cnn3C(C)C)c(=O)[nH]1` [Compound B-142], the IC50 was in the range of 3 to 10 µM.
With `Cc1[nH]c(=O)c(CNC(=O)c2cc(C3=CC(C)(C)NC(C)(C)C3)nc3c2cnn3C(C)C)c(C)c1Cc1ccccc1` [Compound B-143], the 50% inhibitory concentration (IC50) fell in the range of 3 to 10 µM.
As for `Cc1cc(C)c(CNC(=O)c2cc(C3=CC(C)(C)NC(C)(C)C3)nc3c2cnn3CCC#N)c(=O)[nH]1` [Compound B-144], the IC50 fell in the range of 3 to 10 µM.
Consider `Cc1[nH]c(=O)c(CNC(=O)c2cc(C3CC(C)(C)NC(C)(C)C3)nc3c2cnn3C(C)C)c(C)c1Cc1ccccc1` [Compound B-145], for which the IC50 was in the range of 10 to 50 µM.
Turning to `Cc1cc(C)c(CNC(=O)c2cc(C3=CC(C)(C)NC(C)(C)C3)nc3c2cnn3CCO)c(=O)[nH]1` [Compound B-146], the 50% inhibitory concentration (IC50) was 10 to 50 µM.
Turning to `Cc1cc(C)c(CNC(=O)c2cc(O)nc3c2cnn3C(C)C)c(=O)[nH]1` [Compound B-147], the IC50 lay within 10 to 50 µM.
With `Cc1cc(C)c(CNC(=O)c2cc(C3=CC(C)(C)NC(C)(C)C3)nc3c2cnn3Cc2ccccc2)c(=O)[nH]1` [Compound B-151], the half-inhibitory concentration (IC50) was 10 to 50 µM.
On to `Cc1cc(C)c(CNC(=O)c2cc(C3=CC(C)(C)NC(C)(C)C3)nc3c2cnn3CCN(C)C)c(=O)[nH]1` [Compound B-152], for which the half-inhibitory concentration (IC50) was 10 to 50 µM.
Next, `Cc1cc(C)c(CNC(=O)c2cc(C3=CC(C)(C)NC(C)(C)C3)nc3c2cnn3C)c(=O)[nH]1` [Compound B-153]: 10 to 50 µM; `CC(=O)n1ncc2c(C(=O)NCc3c(C)cc(C)[nH]c3=O)cc(C3=CC(C)(C)NC(C)(C)C3)nc21` [Compound B-154]: 10 to 50 µM.
On to `C=CCn1ncc2c(C(=O)NCc3c(C)cc(C)[nH]c3=O)cc(C3=CC(C)(C)NC(C)(C)C3)nc21` [Compound B-155], for which the IC50 was 10 to 50 µM.
With `CCOC(=O)Cn1ncc2c(C(=O)NCc3c(C)cc(C)[nH]c3=O)cc(C3=CC(C)(C)NC(C)(C)C3)nc21` [Compound B-156] the figure was 10 to 50 µM; with `Cc1cc(C)c(CNC(=O)c2cc(C3=CC(C)(C)NC(C)(C)C3)nc3c2cnn3CC(F)(F)F)c(=O)[nH]1` [Compound B-164], 3 to 10 µM.
For `Cc1cc(C)c(CNC(=O)c2cc(-c3ccc(CN4CCOCC4)nc3)cc3c2cnn3C2CCCC2)c(=O)[nH]1` [Compound C-2, 1-cyclopentyl-N-((4,6-dimethyl-2-oxo-1,2-dihydropyridin-3-yl)methyl)-6-(6-(morpholinomethyl)pyridin-3-yl)-1H-indazole-4-carboxamide], the IC50 is less than 0.3 µM.
With `Cc1cc(C)c(CNC(=O)c2cc(-c3ccc(CN(C)C)cc3)cc3c2cnn3C2CCCC2)c(=O)[nH]1` [Compound C-3, 1-cyclopentyl-N-((4,6-dimethyl-2-oxo-1,2-dihydropyridin-3-yl)methyl)-6-(4-((dimethylamino)methyl)phenyl)-1H-indazole-4-carboxamide], the 50% inhibitory concentration (IC50) was less than 0.3 µM.
For the compound `Cc1cc(C)c(CNC(=O)c2cc(-c3ccc(COCCCN(C)C)cc3)cc3c2cnn3C2CCCC2)c(=O)[nH]1` [Compound C-4, 1-cyclopentyl-N-((4,6-dimethyl-2-oxo-1,2-dihydropyridin-3-yl)methyl)-6-(4-((3-(dimethylamino)propoxy)methyl)phenyl)-1H-indazole-4-carboxamide], the IC50 was less than 0.3 µM.
With `Cc1cc(C)c(CNC(=O)c2cc(-c3ccc(CN4CCOCC4)cc3)cc3c2cnn3C(C)C)c(=O)[nH]1` [Compound C-5, N-((4,6-dimethyl-2-oxo-1,2-dihydropyridin-3-yl)methyl)-1-isopropyl-6-(4-(morpholinomethyl)phenyl)-1H-indazole-4-carboxamide] the figure was less than 0.3 µM; with `Cc1cc(C)c(CNC(=O)c2cc(-c3ccc(CN4CCOCC4)cc3C)cc3c2cnn3C2CCCC2)c(=O)[nH]1` [Compound C-6, 1-cyclopentyl-N-((4,6-dimethyl-2-oxo-1,2-dihydropyridin-3-yl)methyl)-6-(2-methyl-4-(morpholinomethyl)phenyl)-1H-indazole-4-carboxamide], less than 0.3 µM; with `Cc1cc(C)c(CNC(=O)c2cc(-c3cccc(CO)c3)cc3c2cnn3C2CCCC2)c(=O)[nH]1` [Compound C-8, 1-cyclopentyl-N-((4,6-dimethyl-2-oxo-1,2-dihydropyridine-3-yl)methyl)-6-(3-(hydroxymethyl)phenyl)-1H-indazole-4-carboxamide], 0.3 to 1 µM.
With `Cc1cc(C)c(CNC(=O)c2cc(-c3cccc(CNCCO)c3)cc3c2cnn3C2CCCC2)c(=O)[nH]1` [Compound C-9, 1-cyclopentyl-N-((4,6-dimethyl-2-oxo-1,2-dihydropyridin-3-yl)methyl)-6-(3-(((2-hydroxyethyl)amino)methyl)phenyl)-1H-indazole-4-carboxamide], the IC50 is less than 0.3 µM.
Take `CNCCCOc1cccc(-c2cc(C(=O)NCc3c(C)cc(C)[nH]c3=O)c3cnn(C4CCCC4)c3c2)c1` [Compound C-10, 1-cyclopentyl-N-((4,6-dimethyl-2-oxo-1,2-dihydropyridin-3-yl)methyl)-6-(3-(3-(methylamino)propoxy)phenyl)-1H-indazole-4-carboxamide]: the IC50 is less than 0.3 µM.
Next, `Cc1cc(C)c(CNC(=O)c2cc(-c3cccc(OCCCN(C)C)c3)cc3c2cnn3C2CCCC2)c(=O)[nH]1` [Compound C-11, 1-cyclopentyl-N-((4,6-dimethyl-2-oxo-1,2-dihydropyridin-3-yl)methyl)-6-(3-(3-(dimethylamino)propoxy)phenyl)-1H-indazole-4-carboxamide]: less than 0.3 µM.
Next, `CNCCCOc1ccc(-c2cc(C(=O)NCc3c(C)cc(C)[nH]c3=O)c3cnn(C4CCCC4)c3c2)cc1` [Compound C-12, 1-cyclopentyl-N-((4,6-dimethyl-2-oxo-1,2-dihydropyridin-3-yl)methyl)-6-(4-(3-(methylamino)propoxy)phenyl)-1H-indazole-4-carboxamide]: less than 0.3 µM; `Cc1cc(C)c(CNC(=O)c2cc(-c3ccc(CN4CCC[C@@H]4C(N)=O)cc3)cc3c2cnn3C2CCCC2)c(=O)[nH]1` [Compound C-13, (R)-6-(4-((2-carbamoylpyrrolidin-1-yl)methyl)phenyl)-1-cyclopentyl-N-((4,6-dimethyl-2-oxo-1,2-dihydropyridin-3-yl)methyl)-1H-indazole-4-carboxamide]: less than 0.3 µM.
With `Cc1cc(C)c(CNC(=O)c2cc(-c3ccc(CN4CCOCC4)cn3)cc3c2cnn3C2CCCC2)c(=O)[nH]1` [Compound C-15, 1-cyclopentyl-N-((4,6-dimethyl-2-oxo-1,2-dihydropyridin-3-yl)methyl)-6-(5-(morpholinomethyl)pyridin-2-yl)-1H-indazole-4-carboxamide] the figure was less than 0.3 µM; with `Cc1cc(C)c(CNC(=O)c2cc(-c3ccc(C)c(S(N)(=O)=O)c3)cc3c2cnn3C2CCCC2)c(=O)[nH]1` [Compound C-16], less than 0.3 µM.
As to `Cc1cc(C)c(CNC(=O)c2cc(-c3ccc(CN(C)CCCN(C)C)cc3)cc3c2cnn3C2CCCC2)c(=O)[nH]1` [Compound C-17], the concentration for half-maximal inhibition (IC50) was less than 0.3 µM.
With `Cc1cc(C)c(CNC(=O)c2cc(-c3ccc(COCCCN4CCOCC4)cc3)cc3c2cnn3C2CCCC2)c(=O)[nH]1` [Compound C-18], the IC50 is less than 0.3 µM.
Regarding `Cc1cc(C)c(CNC(=O)c2cc(-c3cccc(C[N+](C)(C)CCO)c3)cc3c2cnn3C2CCCC2)c(=O)[nH]1` [Compound C-19], the concentration for half-maximal inhibition (IC50) was less than 0.3 µM.
In the case of `Cc1cc(C)c(CNC(=O)c2cc(-c3ccc(COCCN4CCOCC4)cc3)cc3c2cnn3C2CCCC2)c(=O)[nH]1` [Compound C-20], the IC50 is less than 0.3 µM.
